The source of these data is ChEMBL document CHEMBL1146318, “Synthesis and SAR of novel 2-arylthiazolidinones as selective analgesic N-type calcium channel blockers” (Bioorg Med Chem Lett, 2007).

The species entered for one assay is Homo sapiens. The assay is described as follows: Selectivity for calcium channel Cav2.2 over calcium channel L type.
Assay [1] has as its target Voltage-dependent N-type calcium channel subunit alpha-1B (Homo sapiens, UniProt Q00975). The assay is described as follows: Inhibition of calcium channel Cav2.2 in IMR32 cells. The format is cell-based, IMR-32.
A short description of assay [2]: Inhibition of calcium channel L type in IMR32 cells. The format is cell-based, Homo sapiens. Particulars: imr-32.

Voltage-dependent N-type calcium channel subunit alpha-1B, sequence (Q00975 whole entry): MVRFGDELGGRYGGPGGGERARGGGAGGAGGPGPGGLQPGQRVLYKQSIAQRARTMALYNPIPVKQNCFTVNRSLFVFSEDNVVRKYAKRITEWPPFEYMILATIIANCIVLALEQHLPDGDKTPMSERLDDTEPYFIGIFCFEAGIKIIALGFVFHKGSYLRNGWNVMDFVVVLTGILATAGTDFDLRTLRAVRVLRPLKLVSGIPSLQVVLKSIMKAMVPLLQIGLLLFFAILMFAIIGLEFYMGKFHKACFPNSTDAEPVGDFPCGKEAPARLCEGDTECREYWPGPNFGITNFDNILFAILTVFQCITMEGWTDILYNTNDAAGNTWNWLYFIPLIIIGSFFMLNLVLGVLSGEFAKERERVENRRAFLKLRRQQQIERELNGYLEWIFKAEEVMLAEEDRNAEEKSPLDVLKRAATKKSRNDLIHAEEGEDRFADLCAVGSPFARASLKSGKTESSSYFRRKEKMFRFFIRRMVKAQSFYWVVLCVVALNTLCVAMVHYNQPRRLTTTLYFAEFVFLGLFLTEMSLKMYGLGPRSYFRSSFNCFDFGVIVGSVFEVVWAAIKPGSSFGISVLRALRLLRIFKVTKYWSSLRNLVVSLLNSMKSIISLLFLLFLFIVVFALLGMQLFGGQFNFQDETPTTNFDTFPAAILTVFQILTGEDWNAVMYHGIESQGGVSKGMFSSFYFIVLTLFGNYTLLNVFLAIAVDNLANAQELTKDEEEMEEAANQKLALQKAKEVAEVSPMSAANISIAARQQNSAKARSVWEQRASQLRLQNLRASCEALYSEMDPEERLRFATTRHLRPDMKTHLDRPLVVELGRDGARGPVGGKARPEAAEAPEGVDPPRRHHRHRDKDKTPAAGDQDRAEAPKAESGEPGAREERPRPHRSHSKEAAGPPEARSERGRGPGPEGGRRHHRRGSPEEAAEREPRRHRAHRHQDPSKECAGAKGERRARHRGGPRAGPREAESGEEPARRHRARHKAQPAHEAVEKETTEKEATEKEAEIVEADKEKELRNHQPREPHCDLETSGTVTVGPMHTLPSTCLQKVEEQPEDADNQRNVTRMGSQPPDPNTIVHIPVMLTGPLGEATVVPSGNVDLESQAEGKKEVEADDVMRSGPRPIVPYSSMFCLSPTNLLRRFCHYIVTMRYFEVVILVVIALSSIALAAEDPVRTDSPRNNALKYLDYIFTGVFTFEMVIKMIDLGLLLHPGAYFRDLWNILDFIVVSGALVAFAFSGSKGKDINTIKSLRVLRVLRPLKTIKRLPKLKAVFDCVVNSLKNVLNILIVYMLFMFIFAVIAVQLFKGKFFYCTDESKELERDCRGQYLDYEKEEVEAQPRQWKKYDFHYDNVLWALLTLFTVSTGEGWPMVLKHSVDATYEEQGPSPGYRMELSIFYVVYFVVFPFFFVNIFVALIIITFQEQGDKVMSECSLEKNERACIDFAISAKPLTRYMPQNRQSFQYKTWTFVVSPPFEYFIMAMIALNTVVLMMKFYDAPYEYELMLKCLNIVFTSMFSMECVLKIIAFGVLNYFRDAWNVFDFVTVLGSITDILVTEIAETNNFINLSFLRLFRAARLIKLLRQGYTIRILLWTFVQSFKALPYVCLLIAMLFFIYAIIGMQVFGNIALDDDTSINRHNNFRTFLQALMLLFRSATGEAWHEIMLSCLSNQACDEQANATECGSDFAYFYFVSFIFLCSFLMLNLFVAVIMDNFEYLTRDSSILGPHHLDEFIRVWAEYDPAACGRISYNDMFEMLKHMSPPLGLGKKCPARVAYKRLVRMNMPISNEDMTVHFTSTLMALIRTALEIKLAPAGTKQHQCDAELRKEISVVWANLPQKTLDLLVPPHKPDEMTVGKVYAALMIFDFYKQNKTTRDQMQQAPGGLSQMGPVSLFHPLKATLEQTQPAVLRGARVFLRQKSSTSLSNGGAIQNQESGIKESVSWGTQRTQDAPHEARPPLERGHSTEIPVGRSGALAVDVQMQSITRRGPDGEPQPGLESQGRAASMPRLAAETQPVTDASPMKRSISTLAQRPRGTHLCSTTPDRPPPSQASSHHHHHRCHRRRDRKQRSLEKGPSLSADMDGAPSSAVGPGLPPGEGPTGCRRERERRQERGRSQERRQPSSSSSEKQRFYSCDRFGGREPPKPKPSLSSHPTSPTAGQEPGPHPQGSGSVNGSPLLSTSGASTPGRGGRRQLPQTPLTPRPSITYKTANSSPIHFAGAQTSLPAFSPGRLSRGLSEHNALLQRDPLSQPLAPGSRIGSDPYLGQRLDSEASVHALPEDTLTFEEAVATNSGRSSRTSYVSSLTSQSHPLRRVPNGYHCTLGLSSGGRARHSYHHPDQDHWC

A word on the IC50: it is the concentration needed to halve the response being measured. Take `CC(C)CN1C(=O)CSC1c1ccncc1-c1ccc(Br)cc1` (stereo unspecified): in the assay filed under Homo sapiens, the Ratio IC50 was 6.1. The IC50 is 500 nM in assay [1] and 3.08 µM in assay [2].
`O=C1CS(=O)(=O)C(c2ccc(F)c(Br)c2)N1CCc1ccccn1` (stereo unspecified): the concentration for half-maximal inhibition (IC50) is 8130 nM in assay [1] and above 30 µM in assay [2].
Consider `O=C1CSC(c2ccc(F)c(Br)c2)N1CCc1ccccn1` (stereo unspecified), for which, in the assay listed under Homo sapiens, the Ratio IC50 came out at 5.6. Moreover, the IC50 in assay [1] came to 1680 nM; in assay [2], 9.51 µM.
For the compound `C=Cc1ccc(-c2cnccc2C2SCC(=O)N2CC(C)C)cc1` (stereo unspecified), the Ratio IC50 in the assay listed under Homo sapiens was 7.8. Moreover, the IC50 in assay [1] came to 530 nM; in assay [2] it was 4.16 µM.
In the case of `O=C1C[S+]([O-])C(c2ccc(F)c(Br)c2)N1CCc1ccccn1` (stereo unspecified), the 50% inhibitory concentration (IC50) in assay [1] is 29800 nM; in assay [2] it was above 30 µM.
On to `O=C1CSC(c2cnccc2-c2ccc(Br)cc2)N1C1CCCC1` (stereo unspecified), for which the Ratio IC50 in the assay filed under Homo sapiens is 16.3. Further, the results for the concentration for half-maximal inhibition (IC50) in assay [1] and in assay [2] were 630 nM and 10.3 µM, respectively.
Taken in the same sequence, the figures for `CC(C)CN1C(=O)CSC1c1cnccc1-c1ccc(Br)cc1` (stereo unspecified) were 12.8, 660 nM and 8.41 µM.
Consider `CC(C)CN1C(=O)CSC1c1cccnc1-c1ccc(F)cc1` (stereo unspecified), for which the Ratio IC50 in the assay listed under Homo sapiens was 2.6. In addition, the figures for the IC50 in assay [1] and in assay [2] were 4920 nM and 12.9 µM, respectively.
Taken in the same sequence, the figures for `CN(C)c1ccc(-c2cnccc2C2SCC(=O)N2C2CCCC2)cc1` (stereo unspecified) were 1.7, 10700 nM and 18.2 µM.
Taken in the same sequence, the figures for `C=Cc1ccc(-c2ncccc2C2SCC(=O)N2CC(C)C)cc1` (stereo unspecified) were 3.2, 1330 nM and 4.23 µM.
For `COc1ccc(-c2ncccc2C2SCC(=O)N2CC(C)C)cc1` (stereo unspecified), in the assay filed under Homo sapiens, the Ratio IC50 came out at 2.3. Also, the IC50 in assay [1] amounted to 8930 nM; in assay [2], 20.6 µM.
For `CC(C)CN1C(=O)COC1c1cnccc1-c1ccc(Br)cc1` (stereo unspecified), in that order: 6.6, 4420 nM and 29.3 µM.
Regarding `COc1ccc(-c2cnccc2C2SCC(=O)N2CC(C)C)cc1` (stereo unspecified), the Ratio IC50 in the assay filed under Homo sapiens was found to be 9.5. Besides, the results for the IC50 in assay [1] and in assay [2] were 1400 nM and 13.7 µM, respectively.
Taken in the same sequence, the figures for `Cc1ccc(-c2ncccc2C2SCC(=O)N2CC(C)C)cc1` (stereo unspecified) were 6.4, 1960 nM and 12.5 µM.
For `CC(C)CNC(=O)CC1SC(c2ccc(F)c(Br)c2)N(CCc2ccccn2)C1=O` (stereo unspecified), in that order: 2.2, 1340 nM and 2.92 µM.
For `O=C1CSC(c2cnccc2-c2ccc(Br)cc2)N1C1CCCCC1` (stereo unspecified), in that order: 1.5, 1320 nM and 2.01 µM.
For `CCC(C)N1C(=O)CSC1c1cnccc1-c1ccc(Br)cc1` (stereo unspecified), the Ratio IC50 in the assay filed under Homo sapiens is 11.2. Besides, the half-inhibitory concentration (IC50) came out at 210 nM in assay [1] and 2.33 µM in assay [2].
Regarding `Cc1ccc(-c2ccncc2[C@H]2SCC(=O)N2CC(C)C)cc1` (stereo in doubt; 60) [listing 1 of 2 here], the IC50 was 4440 nM in assay [1] and 12.9 µM in assay [2].
For `Cc1ccc(-c2ccncc2[C@H]2SCC(=O)N2CC(C)C)cc1` (stereo in doubt; 61) [listing 1 of 2 here], in that order: 730 nM and 23.2 µM.
For `Fc1ccc(C(c2ccc(F)cc2)N2CCN(C/C=C/c3ccccc3)CC2)cc1` [FLUNARIZINE], the Ratio IC50 in the assay listed under Homo sapiens is 0.5. For the same compound, the IC50 in assay [1] was found to be 1670 nM; in assay [2] it was 0.78 µM.
Regarding `CC(C)CN1C(=O)CS[C@@H]1c1cnccc1-c1ccc(C(F)(F)F)cc1` (stereo in doubt; 58) [listing 1 of 2 here], in the assay filed under Homo sapiens, the Ratio IC50 was found to be 3.9.
Consider `COc1ccc(CN2CCN(C(c3ccc(F)cc3)c3ccc(F)cc3)CC2)c(OC)c1OC` [LOMERIZINE], for which the Ratio IC50 in the assay listed under Homo sapiens stood at 0.6. The IC50 in assay [1] is 2430 nM; in assay [2], 1.48 µM.
Taken in the same sequence, the figures for `CC(C)CN1C(=O)CSC1c1ccncc1-c1ccc(Cl)cc1` (stereo unspecified) were 7.9, 580 nM and 4.58 µM.
Taken in the same sequence, the figures for `CC(C)CN1C(=O)CSC1c1cnccc1-c1ccc(C(F)(F)F)cc1` (stereo unspecified) were 9.6, 1070 nM and 10.3 µM.
Taken in the same sequence, the figures for `C=Cc1ccc(-c2ccncc2C2SCC(=O)N2CC(C)C)cc1` (stereo unspecified) were 19.5, 510 nM and 9.99 µM.
Regarding `Cc1ccc(-c2ccncc2[C@H]2SCC(=O)N2CC(C)C)cc1` (stereo in doubt; 60) [listing 2 of 2 here], in the assay filed under Homo sapiens, the Ratio IC50 is 2.9.
In the case of `CC(C)CN1C(=O)CSC1c1ccncc1-c1ccc(F)cc1` (stereo unspecified), in the assay filed under Homo sapiens, the Ratio IC50 turned out to be 2.8. Besides, the IC50 was found to be 4150 nM in assay [1] and 11.7 µM in assay [2].
Turning to `Cc1ccc(-c2ccncc2[C@H]2SCC(=O)N2CC(C)C)cc1` (stereo in doubt; 61) [listing 2 of 2 here], in the assay listed under Homo sapiens, the Ratio IC50 is 31.8.
Turning to `CC(C)CN1C(=O)CSC1c1cnccc1-c1ccc(F)cc1` (stereo unspecified), the Ratio IC50 in the assay listed under Homo sapiens was 5.2. For the same compound, the IC50 in assay [1] was determined as 1290 nM; in assay [2], 6.66 µM.
As to `CC(C)CN1C(=O)CS[C@@H]1c1cnccc1-c1ccc(C(F)(F)F)cc1` (stereo in doubt; 59) [listing 1 of 2 here], the IC50 in assay [1] was 770 nM; in assay [2], 22.9 µM.
As for `Cc1ccc(-c2cnccc2C2SCC(=O)N2CC(C)C)cc1` (stereo unspecified), the Ratio IC50 in the assay listed under Homo sapiens amounted to 13.6. Besides, the half-maximal inhibitory concentration (IC50) amounted to 590 nM in assay [1] and 8.03 µM in assay [2].
Turning to `CC(C)CNC(=O)CC1SC(c2cccc(C(F)(F)F)c2)N(CCc2ccccn2)C1=O` (stereo unspecified), the Ratio IC50 in the assay listed under Homo sapiens was determined as 1.6. Also, the values for the IC50 in assay [1] and in assay [2] were 1290 nM and 2.08 µM, respectively.
Turning to `CC(C)CN1C(=O)CS[C@@H]1c1cnccc1-c1ccc(C(F)(F)F)cc1` (stereo in doubt; 58) [listing 2 of 2 here], the IC50 in assay [1] came out at 3320 nM; in assay [2], 12.9 µM.
On to `CC(C)CN1C(=O)C[S+]([O-])C1c1cnccc1-c1ccc(Br)cc1` (stereo unspecified), for which the Ratio IC50 in the assay filed under Homo sapiens was 3.8. The IC50 in assay [1] is 3970 nM; in assay [2], 15 µM.
For `CC(C)CN1C(=O)CSC1c1cnccc1-c1ccc(Cl)cc1` (stereo unspecified), in that order: 3.6, 600 nM and 2.18 µM.
For the compound `Cc1ccc(-c2ccncc2C2SCC(=O)N2CC(C)C)cc1` (stereo unspecified), in the assay listed under Homo sapiens, the Ratio IC50 was 16.7. Moreover, the results for the concentration for half-maximal inhibition (IC50) in assay [1] and in assay [2] were 490 nM and 8.2 µM, respectively.
Taken in the same sequence, the figures for `O=C1CSC(c2cnccc2-c2ccc(Br)cc2)N1C1CC1` (stereo unspecified) were 3.6, 1300 nM and 4.69 µM.
Taken in the same sequence, the figures for `CCc1ccc(-c2ccncc2C2SCC(=O)N2CC(C)C)cc1` (stereo unspecified) were 6.3, 880 nM and 5.54 µM.
As to `O=C1CSC(c2ccncc2-c2ccc(C(F)(F)F)cc2)N1C1CCCC1` (stereo unspecified), the Ratio IC50 in the assay listed under Homo sapiens is 3.1. The IC50 in assay [1] stood at 1370 nM; in assay [2] it was 4.25 µM.
Taken in the same sequence, the figures for `CC(C)CN1C(=O)CSC1c1cccnc1-c1ccc(C(F)(F)F)cc1` (stereo unspecified) were 9.7, 560 nM and 5.44 µM.
Taken in the same sequence, the figures for `CC(C)CN1C(=O)CSC1c1cnccc1-c1ccccc1` (stereo unspecified) were 4.1, 3980 nM and 16.4 µM.
For `CC(C)CN1C(=O)CSC1c1cccnc1-c1ccc(Cl)cc1` (stereo unspecified), in that order: 5.9, 1260 nM and 7.49 µM.
For `CC(C)CN1C(=O)CSC1c1cccnc1-c1ccc(Br)cc1` (stereo unspecified), the Ratio IC50 in the assay listed under Homo sapiens was found to be 8.9. The half-inhibitory concentration (IC50) in assay [1] amounted to 700 nM; in assay [2] it was 6.2 µM.
As for `CC(C)CN1C(=O)CS[C@@H]1c1cnccc1-c1ccc(C(F)(F)F)cc1` (stereo in doubt; 59) [listing 2 of 2 here], in the assay filed under Homo sapiens, the Ratio IC50 is 29.1.
For the compound `O=C1CSC(c2cccc(C(F)(F)F)c2)N1CCc1ccccn1` (stereo unspecified), the Ratio IC50 in the assay listed under Homo sapiens was found to be 4.8. The figures for the IC50 in assay [1] and in assay [2] were 2410 nM and 11.5 µM, respectively.
